# Source: patent US6093409A (Societe L'Oreal S.A., priority 1996, dated 2000)
# Assay: "Hp-squalene" anti(singlet oxygen ^1 O2) test
# Type: biochemical
# Conditions: 0.03% solutions
row,SMILES,% INHIBITION
1,COc1cc2c(CCNC(C)=O)c[nH]c2cc1O [6-Hydroxymelatonin],~78%
2,CC1=C(/C=C/C(C)=C/C=C/C(C)=C/C=C/C=C(C)/C=C/C=C(C)/C=C/C2=C(C)C(=O)[C@@H](O)CC2(C)C)C(C)(C)C[C@H](O)C1=O [Astaxanthin],34%
3,CC1=C(/C=C/C(C)=C/C=C/C(C)=C/C=C/C=C(C)/C=C/C=C(C)/C=C/C2=C(C)C(=O)CCC2(C)C)C(C)(C)CCC1=O [Cantaxanthin],67%
4,O=c1c(O)c(-c2ccc(O)c(O)c2)oc2cc(O)cc(O)c12 [Quercetin],72%
5,C[C@@H]1O[C@@H](OC[C@H]2O[C@@H](Oc3c(-c4ccc(O)c(O)c4)oc4cc(O)cc(O)c4c3=O)[C@H](O)[C@@H](O)[C@@H]2O)[C@H](O)[C@H](O)[C@H]1O [Rutin],51%
6,CC1=C(/C=C/C(C)=C/C=C/C(C)=C/C=C/C=C(C)/C=C/C=C(C)/C=C/C2=C(C)CCCC2(C)C)C(C)(C)CCC1 [β-Carotene],62%

# Same assay, conditions: 0.03% solutions, comparison in words
row,SMILES,percentage of inhibition compared with melatonin and the other reference singlet-oxygen inhibitors
1,COc1cc2c(CCNC(C)=O)c[nH]c2cc1O [6-Hydroxymelatonin],higher than that obtained for melatonin and the other reference singlet-oxygen inhibitors
